# Patent publication US20110217300A1, “Quinazolinone Compounds and Methods of Use Thereof” (priority 2007, published 2011)
# Assays:
# HsEg5 = target: T1, HsEg5 (Homo sapiens, UniProt P52732); experiment: Fluorescence detection of HsEg5 ATPase activity (ADP Quest, automated); assay type: biochemical
# T1 sequence (P52732 18-359 limits assumed): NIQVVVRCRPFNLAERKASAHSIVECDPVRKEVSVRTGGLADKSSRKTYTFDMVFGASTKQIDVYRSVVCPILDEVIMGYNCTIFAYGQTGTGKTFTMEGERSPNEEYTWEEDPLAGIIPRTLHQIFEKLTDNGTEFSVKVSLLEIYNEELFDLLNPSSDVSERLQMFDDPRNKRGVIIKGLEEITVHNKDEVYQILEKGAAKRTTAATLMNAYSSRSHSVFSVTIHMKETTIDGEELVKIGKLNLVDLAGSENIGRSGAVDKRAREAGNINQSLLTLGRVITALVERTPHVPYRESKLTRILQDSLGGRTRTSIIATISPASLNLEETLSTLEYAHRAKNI
# In short: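 Microtubule-activated HsEg5 motor fragment (10 nM, 500 nM MTs) preincubated 10 min with compound, then 20 μM ATP for 10 min at room temperature in Pipes pH 7.0, MgCl2, paclitaxel, 0.3% DMSO. ADP detected via coupled-enzyme resorufin fluorescence; IC50 over 100 μM–5 nM.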
# HEC1A = experiment: MTS cell viability assay; assay type: cell-based; conditions: Homo sapiens, HEC-1-A, endometrial
# Description: (§1) Cell viability was determined by measuring the activity of dehydrogenase enzymes in metabolically active cells using a tetrazolium compound, MTS. The assay was performed as described in Promega Technical Bulletin No. 169 (CellTiter 96 Aqueous Non-Radioactive Cell Proliferation Assay). Two human cancer cell lines were assayed (see, Table 1). Cells were maintained at 37° C. and 5% CO2 in DMEM media (4.5 g/L glucose) supplemented with 10% heat-inactivated FBS, 10 mM L-glutamine, and 10 mM Hepes pH 7.5. Briefly, cells were seeded in 96-well plates as set forth in Table 1 and incubated for 16-24 hours. Candidate compounds were serially diluted in DMSO, further diluted in cell culture media, and then added to cells (final DMSO concentration of 0.33%). Cells were incubated in the presence of candidate compound for 72 hours. MTS stock solution (MTS 2 gm/L, PMS […] in PBS) was added to the cells (final concentration MTS […] and PMS 7.67 mg/L) and incubated for 4 hours. SDS was added to a final concentration of 1.4% and absorbance at 490 nm was measured within two hours using a plate reader. […] GI50 values were given in Table 2 for the compounds listed. The Compound Numbers in Table 2 correspond to the numbers listed parenthetically in the Example titles. Where multiple measurements were made by different technicians, both values are given.
# (§2) Cell viability was determined for N-(3-amino-propyl)-3-chloro-N—[(R)-1-(7-chloro-4-oxo-3-phenylamino-3,4-dihydro-quinazolin-2-yl)-but-3-ynyl]-2-fluoro-benzamide (compound I of Table 2). The cell viability assay of Example 105 was used. GI50 was determined using a variety of cell lines. Cells were plated at 100-5000 cells per well. At least 2 replicates were performed. Where multiple measurements were made by different technicians, both values are given.
# NCI-H1299 = experiment: MTS cell viability assay; assay type: cell-based; conditions: Homo sapiens, Non-small cell lung carcinoma
# Description: as §1, §2
# PANC-1 = experiment: MTS cell viability assay; assay type: cell-based; conditions: Homo sapiens, Pancreas epithelioid carcinoma
# Description: as §1, §2
# SW480 = experiment: MTS cell viability assay; assay type: cell-based; conditions: colon
# Description: as §1, §2
smiles,measurement,setting,value
"C#CC[C@H](c1nc2cc(Cl)ccc2c(=O)n1Nc1ccccc1)N(CCCN)C(=O)c1cccc(Cl)c1F [Compound 1, N-(3-Amino-propyl)-3-chloro-N—[(R)-1-(7-chloro-4-oxo-3-phenylamino-3,4-dihydro-quinazolin-2-yl)-but-3-ynyl]-2-fluoro-benzamide]",IC50,HsEg5,28 nM
same,GI50,HEC1A,316 nM
same,GI50,NCI-H1299,549 nM
same,GI50,PANC-1,1170 nM
same,GI50,"SW480; Homo sapiens, SW480, SW480",1270 nM
same,GI50,"SW480; SW480, listed as I",1220 nM
